How the values were obtained:
[1] = Induction of tubulin assembly at 0.2 uM relative to taxol
A2780 = assay: cells; conditions: Homo sapiens, A2780, 48 h
MCF7 [2] = assay: cells; conditions: Homo sapiens, MCF7, 48 h
[3] = Induction of tubulin assembly at 1 uM relative to taxol
MDA-MB-231 [4] = assay: cells; conditions: Homo sapiens, MDA-MB-231, 48 h
PC-3 = assay: cells; conditions: Homo sapiens, PC-3, 48 h
MDA-MB-231 [5] = assay: Antiproliferative activity against human MDA-MB-231 cells assessed as inhibition of cell survival after 48 hrs by MTS method; format: functional
MCF7 [6] = assay: Antiproliferative activity against human MCF7 cells assessed as reduction of cell survival after 7 days by MTS method; format: functional
MCF7 [7] = assay: Antiproliferative activity against human MCF7 cells assessed as reduction of cell survival after 48 hrs by MTS method; format: functional

SMILES	Activity [1]	IC50 (A2780)	IC50 (MCF7 [2])	Activity [3]	IC50 (MDA-MB-231 [4])	IC50 (PC-3)	inhibition (INH) (MDA-MB-231 [5])	Activity (MCF7 [6])	Activity (MCF7 [7])
CC(=O)O[C@H]1C(=O)[C@]2(C)[C@@H](OC(=O)/C=C/C[C@@H]3C[C@H]4[C@@H]5CCc6cc(O)ccc6[C@H]5CC[C@]4(C)[C@H]3O)C[C@H]3OC[C@@]3(OC(C)=O)[C@H]2[C@H](OC(=O)c2ccccc2)[C@]2(O)C[C@H](OC(=O)[C@H](O)[C@@H](NC(=O)c3ccccc3)c3ccccc3)C(C)=C1C2(C)C	100%	8300 nM	1600 nM	100%	2200 nM	120 nM			
CC(=O)O[C@H]1C(=O)[C@@]2(C)[C@H]([C@H](OC(=O)c3ccccc3)[C@]3(O)C[C@H](OC(=O)[C@H](O)[C@@H](NC(=O)c4ccccc4)c4ccccc4)C(C)=C1C3(C)C)[C@]1(OC(C)=O)CO[C@@H]1C[C@@H]2O [PACLITAXEL]							85%	70%	20%
CC(=O)O[C@H]1C(=O)[C@@]2(C)[C@H]([C@H](OC(=O)c3ccccc3)[C@]3(O)C[C@H](OC(=O)[C@H](OC(=O)CCC(=O)O[C@@H]4C[C@]5(C)[C@@H](O)CC[C@H]5[C@@H]5CCc6cc(O)ccc6[C@H]54)[C@@H](NC(=O)c4ccccc4)c4ccccc4)C(C)=C1C3(C)C)[C@]1(OC(C)=O)CO[C@@H]1C[C@@H]2O	60%			60%					
CC(=O)O[C@H]1C(=O)[C@@]2(C)[C@H]([C@H](OC(=O)c3ccccc3)[C@]3(O)C[C@H](OC(=O)[C@H](OC(=O)/C=C/C[C@@H]4C[C@H]5[C@@H]6CCc7cc(O)ccc7[C@H]6CC[C@]5(C)[C@H]4O)[C@@H](NC(=O)c4ccccc4)c4ccccc4)C(C)=C1C3(C)C)[C@]1(OC(C)=O)CO[C@@H]1C[C@@H]2O	45%			55%					
CC(=O)O[C@H]1C(=O)[C@]2(C)[C@@H](OC(=O)CCC(=O)O[C@@H]3C[C@]4(C)[C@@H](O)CC[C@H]4[C@@H]4CCc5cc(O)ccc5[C@H]43)C[C@H]3OC[C@@]3(OC(C)=O)[C@H]2[C@H](OC(=O)c2ccccc2)[C@]2(O)C[C@H](OC(=O)[C@H](O)[C@@H](NC(=O)c3ccccc3)c3ccccc3)C(C)=C1C2(C)C	100%	2900 nM	557 nM	100%	780 nM	320 nM	85%	70%	20%
CC(=O)O[C@@]12CO[C@@H]1C[C@H](O)[C@@]1(C)C(=O)[C@H](OC(=O)CCC(=O)O[C@@H]3C[C@]4(C)[C@@H](O)CC[C@H]4[C@@H]4CCc5cc(O)ccc5[C@H]43)C3=C(C)[C@@H](OC(=O)[C@H](O)[C@@H](NC(=O)c4ccccc4)c4ccccc4)C[C@@](O)([C@@H](OC(=O)c4ccccc4)[C@H]21)C3(C)C	100%	1900 nM	103 nM	100%	304 nM	68 nM			

Reference: ChEMBL document CHEMBL1146474, “Design, synthesis, and bioactivities of steroid-linked taxol analogues as potential targeted drugs for prostate and breast cancer” (J Nat Prod, 2004)
